In patent publication US8507489B2, “Bicyclic triazoles as protein kinase modulators” (SGX Pharmaceuticals, Inc., priority 2006, dated 2013) one finds IC50 data, which are given here for 24 compounds.

pIC50: −log10 of the molar value. Where a name gives a salt, the structure may show the parent alone. Bounds are passed on as bounds.

For one test, the target named is c-MET (Homo sapiens, UniProt P08581). As to the kind of experiment: MET luminescence-based enzyme assay (Kinase-Glo). Format: biochemical. The method, then:
The subscript designates positive or negative controls. The Z′ score for a robust screening assay should be ≧0.50. The typical threshold=μ+−3*σ+. Any value that falls below the threshold was designated a “hit”.
MET Luminescence-Based Enzyme Assay
MET kinase (see below), Kinase-Glo™ (Promega Cat#V6712).
Negative controls contained 10 μM staurosporine.

In another test the test system is GTL16 cells. Kind of test: 96-well XTT cell survival assay (GTL16 cells). Format: cell-based. The conditions noted are these: Homo sapiens, GTL 16, 72 hours. As for the experimental part: GTL16 cells were maintained in DMEM Medium supplemented with 10% fetal bovine serum (FBS) 2 mM L-Glutamine and 100 units penicillin/100 μg streptomycin, at 37° C. in 5% CO2.
Compounds were tested in the following assays in duplicate.
96-well XTT assay (GTL16 cells): One day prior to assay the growth media was aspirated off and assay media was added to cells. On the day of the assay, the cells were grown in assay media containing various concentrations of compounds (duplicates) on a 96-well flat bottom plate for 72 hours at 37° C. in 5% CO2. The starting cell number was 5000 cells per well and volume was 120 μl. At the end of the 72-hour incubation, 40 μl of XTT labeling mixture (50:1 solution of sodium 3′-[1-(phenylaminocarbonyl)-3,4-tetrazolium]-bis (4-methoxy-6-nitro) benzene sulfonic acid hydrate and Electron-coupling reagent: PMS (N-methyl dibenzopyrazine methyl sulfate) were added to each well of the plate. After an additional 5 hours of incubation at 37° C., the absorbance reading at 450 nm with a background correction of 650 nm was measured with a spectrophotometer.

c-MET, sequence (P08581 1078-1345 limits assumed): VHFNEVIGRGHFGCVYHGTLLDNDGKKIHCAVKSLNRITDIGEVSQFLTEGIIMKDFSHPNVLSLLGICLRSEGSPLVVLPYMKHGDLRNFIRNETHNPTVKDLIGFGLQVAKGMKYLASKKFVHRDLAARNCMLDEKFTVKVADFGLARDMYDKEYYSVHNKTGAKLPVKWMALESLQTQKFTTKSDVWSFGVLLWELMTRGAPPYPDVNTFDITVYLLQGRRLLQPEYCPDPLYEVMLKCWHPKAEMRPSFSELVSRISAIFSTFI

Regarding `c1cnc2ccc(Sc3nnc4ccc(-c5cn[nH]c5)nn34)cc2c1` [Compound 39, 6-[6-(1H-Pyrazol-4-yl)-[1,2,4]triazolo[4,3-b]pyridazin-3-ylsulfanyl]-quinoline], the values for the pIC50 on c-MET and in the test on GTL16 cells were > 7.00 and 6.00 to 7.00, respectively.

On to `Cc1ccc2nnc(Sc3cc4cccnc4cc3F)n2n1` [Compound 51, 7-Fluoro-6-(6-methyl-[1,2,4]triazolo[4,3-b]pyridazin-3-ylsulfanyl)-quinoline], for which the pIC50 at c-MET was 6.00 to 7.00.

As for `Cc1cnc2ccc(Sc3nnc4ccc(C)nn34)cc2c1` [Compound 54, 3-Methyl-6-(6-methyl-[1,2,4]triazolo[4,3-b]pyridazin-3-ylsulfanyl)-quinoline], on c-MET, the pIC50 is 6.00 to 7.00.

For the compound `Fc1cccc(-c2ccc3nnc(Sc4ccc5ncsc5c4)n3n2)c1` [Compound 6, 3-(Benzothiazol-6-ylsulfanyl)-6-(3-fluoro-phenyl)-[1,2,4]triazolo[4,3-b]pyridazine], the pIC50 on c-MET and in the test with GTL16 cells was 6.00 to 7.00 throughout.

For the compound `CNC(=O)c1ccc(-c2ccc3nnc(Sc4ccc5ncccc5c4)n3n2)cc1F` [Compound 11, 2-Fluoro-N-methyl-4-[3-(quinolin-6-ylsulfanyl)-[1,2,4]triazolo[4,3-b]pyridazin-6-yl]-benzamide], the values for the pIC50 on c-MET and with GTL16 cells were > 7.00 and 6.00 to 7.00, respectively.

For `CNc1ccc2nnc(Sc3ccc4ncccc4c3-c3cnn(C)c3)n2n1` [Compound 49, Methyl-{3-[5-(1-methyl-1H-pyrazol-4-yl)-quinolin-6-ylsulfanyl]-[1,2,4]triazolo[4,3-b]pyridazin-6-yl}-amine], the negative-log IC50 (pIC50) at c-MET was < 5.00.

In turn, `Cn1cc(-c2ccc3nnc(Sc4ccc5c(ccc[n+]5[O-])c4)n3n2)cn1` [Compound 27, 6-[6-(1-Methyl-1H-pyrazol-4-yl)-[1,2,4]triazolo[4,3-b]pyridazin-3-ylsulfanyl]-quinoline, N-oxide] gave a pIC50 at c-MET of 5.00 to 6.00.

For `Cc1ccc2nnc(Sc3ccc4ncc(-c5cn[nH]c5)cc4c3)n2n1` [Compound 59, 6-(6-Methyl-[1,2,4]triazolo[4,3-b]pyridazin-3-ylsulfanyl)-3-(1H-pyrazol-4-yl)-quinoline], the pIC50 at c-MET was > 7.00; in the test on GTL16 cells it was 6.00 to 7.00.

On to `Fc1cccc(-c2ccc3nnc(Sc4ccc5nncn5c4)n3n2)c1` [Compound 7, 6-(3-Fluoro-phenyl)-3-([1,2,4]triazolo[4,3-a]pyridin-6-ylsulfanyl)-[1,2,4]triazolo[4,3-b]pyridazine], for which the pIC50 against c-MET and in the test on GTL16 cells was 5.00 to 6.00 each time.

For the compound `c1ccc(-c2ccc3nnc(Sc4ccc5ncccc5c4)n3n2)cc1` [Compound 1, 6-(6-Phenyl-[1,2,4]triazolo[4,3-b]pyridazin-3-ylsulfanyl)-quinoline], the results for the pIC50 against c-MET and with GTL16 cells were > 7.00 and ≥ 7.00, respectively.

Take `Cc1ccc2nnc(Sc3ccc4nccc(Sc5nncn5C)c4c3)n2n1` [Compound 57, 6-(6-Methyl-[1,2,4]triazolo[4,3-b]pyridazin-3-ylsulfanyl)-4-(4-methyl-4H-[1,2,4]triazol-3-ylsulfanyl)-quinoline]: on c-MET, the negative-log IC50 (pIC50) was < 5.00.

`Cn1cc(-c2ccc3nnc(Sc4ccc5ncccc5c4F)n3n2)cn1` [Compound 55, 5-Fluoro-6-[6-(1-methyl-1H-pyrazol-4-yl)-[1,2,4]triazolo[4,3-b]pyridazin-3-ylsulfanyl]-quinoline]: the pIC50 was > 7.00 at c-MET and ≥ 7.00 in the test with GTL16 cells.

In the case of `Cc1ccc2nnc(Sc3ccc4ncc(-c5cnn(CC6CN(C(=O)OC(C)(C)C)C6)c5)cc4c3)n2n1` [Compound 65, 3-{4-[6-(6-Methyl-[1,2,4]triazolo[4,3-b]pyridazin-3-ylsulfanyl)-quinolin-3-yl]-pyrazol-1-ylmethyl}-azetidine-1-carboxylic acid tert-butyl ester], the pIC50 was > 7.00 against c-MET and ≥ 7.00 in the test on GTL16 cells.

As to `Cc1ccc2nnc(Sc3ccc4ncc(-c5cnn(C6CN(C(=O)OC(C)(C)C)C6)c5)cc4c3)n2n1` [Compound 64, 3-{4-[6-(6-Methyl-[1,2,4]triazolo[4,3-b]pyridazin-3-ylsulfanyl)-quinolin-3-yl]-pyrazol-1-yl}-azetidine-1-carboxylic acid tert-butyl ester], the figures for the pIC50 on c-MET and in the test on GTL16 cells were > 7.00 and ≥ 7.00, respectively.

Regarding `Cc1ccc2nnc(Sc3ccc4ncc(-c5cnn(CCN6CCOCC6)c5)cc4c3)n2n1` [Compound 44, 6-(6-Methyl-[1,2,4]triazolo[4,3-b]pyridazin-3-ylsulfanyl)-3-[1-(2-morpholin-4-yl-ethyl)-1H-pyrazol-4-yl]-quinoline], the pIC50 on c-MET is > 7.00; in the test with GTL16 cells, ≥ 7.00.

`Cc1ccc2nnc(Sc3ccc4ncccc4c3)n2n1` [Compound 37, 6-(6-Methyl-[1,2,4]triazolo[4,3-b]pyridazin-3-ylsulfanyl)-quinoline]: the pIC50 against c-MET is 6.00 to 7.00.

Turning to `Cn1cc(-c2ccc3nnc(Sc4ccc5nccc(NC(=O)OC(C)(C)C)c5c4)n3n2)cn1` [Compound 36, {6-[6-(1-Methyl-1H-pyrazol-4-yl)-[1,2,4]triazolo[4,3-b]pyridazin-3-ylsulfanyl]-quinolin-4-yl}-carbamic acid tert-butyl ester], the pIC50 against c-MET was 5.00 to 6.00.

At c-MET, `CN(C)c1ccnc2ccc(Sc3nnc4ccc(-c5cnn(C)c5)nn34)cc12` [Compound 29, Dimethyl-{6-[6-(1-methyl-1H-pyrazol-4-yl)-[1,2,4]triazolo[4,3-b]pyridazin-3-ylsulfanyl]-quinolin-4-yl}-amine] gave a pIC50 of 6.00 to 7.00.

For the compound “Methyl-{3-[4-(4-methyl-4H-[1,2,4]triazol-3-ylsulfanyl)-quinolin-6-ylsulfanyl]-[1,2,4]triazolo[4,3-b]pyridazin-6-yl}-amine (A), Methyl-{3-[6-(4-methyl-4H-[1,2,4]triazol-3-ylsulfanyl)-quinolin-4-ylsulfanyl]-[1,2,4]triazolo[4,3-b]pyridazin-6-yl}-amine (B) [Compound 47]”, the pIC50 on c-MET was 5.00 to 6.00.

As to `Cn1cc(-c2ccc3nnc(Sc4ccc5nccc(N)c5c4)n3n2)cn1` [Compound 34, 6-[6-(1-Methyl-1H-pyrazol-4-yl)-[1,2,4]triazolo[4,3-b]pyridazin-3-ylsulfanyl]-quinolin-4-ylamine, trifluoroacetic acid salt], the pIC50 on c-MET is 6.00 to 7.00.

`Cc1cc2cc(Sc3nnc4ccc(-c5cnn(C)c5)nn34)ccc2nc1N` [Compound 24, 3-Methyl-6-[6-(1-methyl-1H-pyrazol-4-yl)-[1,2,4]triazolo[4,3-b]pyridazin-3-ylsulfanyl]-quinolin-2-ylamine] gave a pIC50 against c-MET of 6.00 to 7.00.

For `CNc1ccnc2ccc(Sc3nnc4ccc(-c5cnn(C)c5)nn34)cc12` [Compound 28, Methyl-{6-[6-(1-methyl-1H-pyrazol-4-yl)-[1,2,4]triazolo[4,3-b]pyridazin-3-ylsulfanyl]-quinolin-4-yl}-amine], the pIC50 at c-MET is 5.00 to 6.00.

On to `CNc1ccc2nnc(Sc3ccc4nccc(Sc5nnc6ccc(NC)nn56)c4c3)n2n1` [Compound 48, 4,6-{6-Methylamino-[1,2,4]triazolo[4,3-b]pyridazin-3-ylsulfanyl}-quinoline], for which the pIC50 on c-MET was < 5.00.

As to `Cc1ccc2nnc(Sc3ccc4ncc(Br)cc4c3)n2n1` [Compound 43, 3-Bromo-6-(6-methyl-[1,2,4]triazolo[4,3-b]pyridazin-3-ylsulfanyl)-quinoline], the pIC50 at c-MET was 6.00 to 7.00.
